Laboratory results taken from publication PMC7376037, “Recombinant expression, purification and PEGylation of Paneth cell peptide (cryptdin-2) with value added attributes against Staphylococcus aureus” (Scientific Reports, 2020).
In brackets after ≈: the same amount, converted by molar mass. Like-named read-outs stand apart in the source and are kept apart here. Bridge positions count the residues as written; N and C are the ends. Peptide text beside a SMILES is read from it.

Columns and labels:
[1] = cited from earlier work
From the text: However, lesser adverse effect was observed on cell membrane when treated with the PEGylated peptide. These findings correlated well with the increased MIC of the peptide as observed above. It is highly probable that site-specific mutation followed by PEG-conjugat ...

Staphylococcus aureus [2] = assay: Radial diffusion (agar well diffusion) assay; assay type: cell-based, Staphylococcus aureus (ATCC 9144); conditions: peptide 100 µg/well, overnight 37 °C, S. aureus
Protocol: Antibacterial activity of all the cryptdin preparations was evaluated by performing radial diffusion assay. […] Following the addition of 20 μL aliquots of the cryptdin-2 preparations along with control sample (PBS) into a series of wells made in the gel, the plates were incubated overnight at 37 °C. The samples were examined for zone of clearance around the wells indicating inhibition of bacterial growth.

[3] = Serum stability (antimicrobial activity after incubation in mice sera); assay type: in vitro ADME; conditions: for reduction of antibacterial activity after 3 h incubation with mice sera: peptide at its MIC, 50% mice serum, 37 °C, read-out micro broth dilution against S. aureus, repeated thrice in triplicates
Protocol: The stability of purified peptide preparations in mice sera was evaluated as described previously[15] with some modifications. Briefly, 80 µL of 50% serum was added to each well of 96-well plates followed by addition of 10 µL of bacterial suspension. The total CFU/mL value was adjusted to be identical in all the samples. Each peptide preparation (10 μL) was added to different wells and incubated at 37 °C for 0, 3, and 6 h respectively. The antimicrobial activities were assessed by performing micro broth dilution assay as described above for determination of MIC against S. aureus. The sera of mice were confirmed for absence of any intrinsic antimicrobial activity prior to performing the test.

Staphylococcus aureus [4] = assay type: cell-based; conditions: for MIC in combination, Peptides: peptide concentration in combination with gentamicin, checkerboard, S. aureus
Protocol: To investigate the interactive effect of these recombinant peptides, a checkerboard assay[41] was performed using a clinically prescribed antibiotic (gentamicin) as the other antibacterial agent. The assay employs the same methodology followed for determination of the MIC as described above. MIC values of peptide and gentamicin were used in this assay in order to calculate the FIC values. All the three peptide variants and gentamicin were tried in different ratios to evaluate interaction of the agents in combination against S. aureus. The same was determined on the basis of the FIC index, wherein an index of ≤ 0.5 indicated a synergistic effect and an index > 0.5 and ≤ 2 indicated an additive or indifferent nature of interaction respectively and lastly, the interaction was confirmed to be antagonistic when the index was > 2.0.
FIC index is expressed as: FIC Index=A1/A+B1/B where A1 and B1 are the respective concentrations of gentamicin and peptide producing the combined MICs, while A and B are the MICs of the individual agents.

RAW 264.7 cell lines = assay: Cell cytotoxicity assay (AlamarBlue); assay type: cell-based, murine; conditions: 24 h
Protocol: The cytotoxicity of recombinant peptide variants towards RAW 264.7 cell lines was assessed using AlamarBlue (Resazurin), a cell metabolic activity reagent (Sigma)[40]. The log phase cells diluted (2 × 10^5/well) in Dulbecco's Modified Eagle Medium (DMEM) containing 10% fetal bovine serum (FBS) were cultured in 96-well microtiter plates and incubated for 12 h under 5% CO2 conditions at 37 °C. […] Following this, 0.02% Alamar blue reagent was added to the cells and incubated for 8 h. Fluorescence was measured with excitation wavelength at 545 nm and emission wavelength at 590 nm. The percent difference between treated and un-treated cells was calculated to determine percent cytotoxicity.

Staphylococcus aureus [5] = assay: microbe, parasite or virus in culture; assay type: cell-based, Staphylococcus aureus (ATCC 9144)
Protocol: To determine MIC values of the peptide preparations, micro broth dilution assay was performed. Briefly, S. aureus cells were grown to mid-exponential phase and diluted to a concentration of approximately 10^7 CFU/mL. Different concentrations of AMP preparations were separately added to wells containing bacterial suspension (approximately 10^6 CFU/mL) in sterile 96-well flat-bottom plate. After incubation at 37 °C, cell growth inhibition was assessed by measuring the absorbance at 595 nm on microplate reader (BioTek). MIC was recorded as the lowest concentration of the peptide preparation at which no visible growth was observed.

Compound	antimicrobial activity, zone of growth inhibition (Staphylococcus aureus [2])	MIC after incubation with serum, 0 h [3]	MIC after incubation with serum, 3 h [3]	MIC after incubation with serum, 6 h [3]	reduction of antibacterial activity after 3 h incubation with mice sera [3]	MIC in combination, Peptides (Staphylococcus aureus [4])	cell viability (RAW 264.7 cell lines)	further results
magainin 2	–	–	–	–	–	–	–	decrease in antimicrobial activity after PEG conjugation ([1]; 5 kDa PEG at N-terminal end): fourfold
CSCC[C@@H]1NC(=O)[C@H](CCCNC(=N)N)NC(=O)[C@H](CS)NC(=O)[C@H](CCCNC(=N)N)NC(=O)[C@H](CCCNC(=N)N)NC(=O)[C@H](CCCCN)NC(=O)[C@@H]2CSSC[C@@H]3NC(=O)[C@H](CC(C)C)NC(=O)[C@H]([C@@H](C)O)NC(=O)[C@H](Cc4ccc(O)cc4)NC(=O)[C@H](CCSC)NC(=O)[C@H](CC(C)C)NC(=O)[C@H](Cc4c[nH]cn4)NC(=O)CNC(=O)[C@H](CCCCN)NC(=O)[C@H](CCCNC(=N)N)NC(=O)[C@H](CSSC[C@H](NC(=O)[C@H](Cc4ccc(O)cc4)NC(=O)[C@@H](NC(=O)[C@@H](NC(=O)[C@H](CC(C)C)NC(=O)[C@H](CC(=O)O)NC(=O)[C@H](CCCNC(=N)N)NC(=O)[C@@H](N)CC(C)C)C(C)C)CSSC[C@@H](C(=O)N[C@@H](CCCNC(=N)N)C(=O)O)NC3=O)C(=O)N[C@@H](CCCNC(=N)N)C(=O)N[C@@H]([C@@H](C)O)C(=O)N[C@@H](CCCNC(=N)N)C(=O)NCC(=O)N2)NC(=O)[C@H]([C@@H](C)O)NC(=O)CNC(=O)[C@H](CC(N)=O)NC1=O [E18C cryptdin-2] (H-LRDLVCYCRTRGCKRRCRMNGTCRKGHLMYTLCCR-OH; disulfide 6-34, 8-23, 13-33)	potent antimicrobial activity	20 µg/mL	40 µg/mL	60 µg/mL	50%	2.5 µg/mL	~65%	FIC indices (Staphylococcus aureus [4]): 0.375
CNC(C)C1CCC(N)C(OC2C(N)CC(N)C(OC3OCC(C)(O)C(NC)C3O)C2O)O1 (stereo not shown) [Gentamicin, gentamicin, reference compound]	–	–	–	–	–	–	–	MIC (Staphylococcus aureus [5]; agent alone against Staphylococcus aureus, Table 1, read-out: MIC): 0.097 µg/mL (≈ 0.203 µM)
nisin	–	–	–	–	–	–	–	antimicrobial activity after PEGylation ([1]; PEGylation via amine group of the lysine side-chain): inactive conjugate
CSCC[C@@H]1NC(=O)[C@H](CCCNC(=N)N)NC(=O)[C@H](CCC(=O)O)NC(=O)[C@H](CCCNC(=N)N)NC(=O)[C@H](CCCNC(=N)N)NC(=O)[C@H](CCCCN)NC(=O)[C@@H]2CSSC[C@@H]3NC(=O)[C@H](CC(C)C)NC(=O)[C@H]([C@@H](C)O)NC(=O)[C@H](Cc4ccc(O)cc4)NC(=O)[C@H](CCSC)NC(=O)[C@H](CC(C)C)NC(=O)[C@H](Cc4c[nH]cn4)NC(=O)CNC(=O)[C@H](CCCCN)NC(=O)[C@H](CCCNC(=N)N)NC(=O)[C@H](CSSC[C@H](NC(=O)[C@H](Cc4ccc(O)cc4)NC(=O)[C@@H](NC(=O)[C@@H](NC(=O)[C@H](CC(C)C)NC(=O)[C@H](CC(=O)O)NC(=O)[C@H](CCCNC(=N)N)NC(=O)[C@@H](N)CC(C)C)C(C)C)CSSC[C@@H](C(=O)N[C@@H](CCCNC(=N)N)C(=O)O)NC3=O)C(=O)N[C@@H](CCCNC(=N)N)C(=O)N[C@@H]([C@@H](C)O)C(=O)N[C@@H](CCCNC(=N)N)C(=O)NCC(=O)N2)NC(=O)[C@H]([C@@H](C)O)NC(=O)CNC(=O)[C@H](CC(N)=O)NC1=O [cryptdin-2] (H-LRDLVCYCRTRGCKRRERMNGTCRKGHLMYTLCCR-OH; disulfide 6-34, 8-23, 13-33)	potent antimicrobial activity	20 µg/mL	40 µg/mL	70 µg/mL	50%	2.5 µg/mL	approximately 70%	MIC (Staphylococcus aureus [5]): 20 µg/mL (≈ 4.71 µM)
